Results reported in the NIST ThermoML archive (doi:10.1021/acs.jced.6b00121).
Several values for one entry are separate records, joined by “and”; a condition that tells them apart may be missing. Equal values may be shown once.

What was measured:
[1] = 100 kPa, Liquid; for viscosity: Falling or rolling sphere viscometry; for mass density: Vibrating tube method
[2] = xn = mol fraction of the nth substance listed; conditions: 100 kPa, Liquid, x2 = 0; for viscosity: Falling or rolling sphere viscometry; for mass density: Vibrating tube method

CCCCCCCCCCC [undecane]
[1]
Conditions | mass density | viscosity [mPa·s]
283.15 K | 747.78 kg/m3 | 1.371
288.15 K | 744.06 kg/m3 | 1.249
293.15 K | 740.35 kg/m3 | 1.145
298.15 K | 736.64 kg/m3 | 1.062
303.15 K | 732.93 kg/m3 | 0.982
308.15 K | 729.23 kg/m3 | 0.91
313.15 K | 725.53 kg/m3 | 0.847
318.15 K | 721.82 kg/m3 and 721.818 kg/m3 | 0.79
323.15 K | 718.11 kg/m3 | 0.74
328.15 K | 714.39 kg/m3 | 0.692
333.15 K | 710.68 kg/m3 | 0.651
338.15 K | 706.95 kg/m3 | 0.615
343.15 K | 703.22 kg/m3 | 0.58
348.15 K | 699.47 kg/m3 | 0.549
353.15 K | 695.72 kg/m3 | 0.522
358.15 K | 691.96 kg/m3 | 0.497
363.15 K | 688.18 kg/m3 | 0.475

CCCCO [butan-1-ol] + CCCCCCCCCCC
[2]
Conditions | mass density [kg/m3] | viscosity [mPa·s]
283.15 K | 817.07 | 4.046
288.15 K | 813.32 | 3.514
293.15 K | 809.55 | 3.066
298.15 K | 805.76 | 2.59
303.15 K | 801.94 | 2.28
308.15 K | 798.09 | 2.015
313.15 K | 794.2 | 1.786
318.15 K | 790.27 | 1.589
323.15 K | 786.3 | 1.427
328.15 K | 782.27 | 1.278
333.15 K | 778.18 | 1.147
338.15 K | 774.03 | 1.032
343.15 K | 769.8 | 0.934
348.15 K | 765.49 | 0.842
353.15 K | 761.12 | 0.762
358.15 K | 756.64 | 0.693
363.15 K | 752.08 | 0.633

CCCCO [butan-1-ol]
[1]
Conditions | mass density [kg/m3] | viscosity [mPa·s]
283.15 K | 817.07 | 4.046
288.15 K | 813.32 | 3.514
293.15 K | 809.55 | 3.066
298.15 K | 805.76 | 2.59
303.15 K | 801.94 | 2.28
308.15 K | 798.09 | 2.015
313.15 K | 794.2 | 1.786
318.15 K | 790.27 | 1.589
323.15 K | 786.3 | 1.427
328.15 K | 782.27 | 1.278
333.15 K | 778.18 | 1.147
338.15 K | 774.03 | 1.032
343.15 K | 769.8 | 0.934
348.15 K | 765.49 | 0.842
353.15 K | 761.12 | 0.762
358.15 K | 756.64 | 0.693
363.15 K | 752.08 | 0.633

CCCCCCO [hexan-1-ol] + CCCCCCCCCCC
[2]
Conditions | mass density [kg/m3] | viscosity [mPa·s]
283.15 K | 825.94 | 7.487
288.15 K | 822.42 | 6.307
293.15 K | 818.88 | 5.348
298.15 K | 815.32 | 4.555
303.15 K | 811.74 | 3.903
308.15 K | 808.13 | 3.361
313.15 K | 804.5 | 2.912
318.15 K | 800.83 | 2.538
323.15 K | 797.12 | 2.228
328.15 K | 793.37 | 1.97
333.15 K | 789.57 | 1.744
338.15 K | 785.72 | 1.553
343.15 K | 781.83 | 1.39
348.15 K | 777.86 | 1.255
353.15 K | 773.86 | 1.125
358.15 K | 769.78 | 1.018
363.15 K | 765.64 | 0.925

CCCCCO [pentan-1-ol]
[1]
Conditions | mass density [kg/m3] | viscosity [mPa·s]
283.15 K | 821.9 | 5.431
288.15 K | 818.3 | 4.655
293.15 K | 814.68 | 4.011
298.15 K | 811.03 | 3.474
303.15 K | 807.37 | 3.023
308.15 K | 803.67 | 2.642
313.15 K | 799.94 | 2.32
318.15 K | 796.17 | 2.045
323.15 K | 792.36 | 1.81
328.15 K | 788.5 | 1.608
333.15 K | 784.59 | 1.434
338.15 K | 780.62 | 1.283
343.15 K | 776.58 | 1.152
348.15 K | 772.49 | 1.038
353.15 K | 768.33 | 0.939
358.15 K | 764.08 | 0.852
363.15 K | 759.77 | 0.776

CCCO [propan-1-ol]
[1]
Conditions | mass density [kg/m3] | viscosity [mPa·s]
283.15 K | 811.48 | 2.834
288.15 K | 807.54 | 2.489
293.15 K | 803.58 | 2.195
298.15 K | 799.59 | 1.929
303.15 K | 795.58 | 1.714
308.15 K | 791.53 | 1.536
313.15 K | 787.44 | 1.372
318.15 K | 783.304 | 1.229
323.15 K | 779.11 | 1.113
328.15 K | 774.86 | 1.002
333.15 K | 770.54 | 0.905
338.15 K | 766.15 | 0.819
343.15 K | 761.67 | 0.752
348.15 K | 757.09 | 0.685
353.15 K | 752.44 | 0.625
358.15 K | 747.65 | 0.574
363.15 K | 742.77 | 0.528

CCCCCCO [hexan-1-ol]
[1]
Conditions | mass density [kg/m3] | viscosity [mPa·s]
283.15 K | 825.94 | 7.487
288.15 K | 822.42 | 6.307
293.15 K | 818.88 | 5.348
298.15 K | 815.32 | 4.555
303.15 K | 811.74 | 3.903
308.15 K | 808.13 | 3.361
313.15 K | 804.5 | 2.912
318.15 K | 800.83 | 2.538
323.15 K | 797.12 | 2.228
328.15 K | 793.37 | 1.97
333.15 K | 789.57 | 1.744
338.15 K | 785.72 | 1.553
343.15 K | 781.83 | 1.39
348.15 K | 777.86 | 1.255
353.15 K | 773.86 | 1.125
358.15 K | 769.78 | 1.018
363.15 K | 765.64 | 0.925

CCCO [propan-1-ol] + CCCCCCCCCCC
[2]
Conditions | mass density [kg/m3] | viscosity [mPa·s]
283.15 K | 811.48 | 2.834
288.15 K | 807.54 | 2.489
293.15 K | 803.58 | 2.195
298.15 K | 799.59 | 1.929
303.15 K | 795.58 | 1.714
308.15 K | 791.53 | 1.536
313.15 K | 787.44 | 1.372
318.15 K | 783.304 | 1.229
323.15 K | 779.11 | 1.113
328.15 K | 774.86 | 1.002
333.15 K | 770.54 | 0.905
338.15 K | 766.15 | 0.819
343.15 K | 761.67 | 0.752
348.15 K | 757.09 | 0.685
353.15 K | 752.44 | 0.625
358.15 K | 747.65 | 0.574
363.15 K | 742.77 | 0.528

CCCCCO [pentan-1-ol] + CCCCCCCCCCC
[2]
Conditions | mass density [kg/m3] | viscosity [mPa·s]
283.15 K | 821.9 | 5.431
288.15 K | 818.3 | 4.655
293.15 K | 814.68 | 4.011
298.15 K | 811.03 | 3.474
303.15 K | 807.37 | 3.023
308.15 K | 803.67 | 2.642
313.15 K | 799.94 | 2.32
318.15 K | 796.17 | 2.045
323.15 K | 792.36 | 1.81
328.15 K | 788.5 | 1.608
333.15 K | 784.59 | 1.434
338.15 K | 780.62 | 1.283
343.15 K | 776.58 | 1.152
348.15 K | 772.49 | 1.038
353.15 K | 768.33 | 0.939
358.15 K | 764.08 | 0.852
363.15 K | 759.77 | 0.776
